The values below come from patent US7732611B2, “Amine salt of carbostyril derivative” (Otsuka Pharmaceutical Co., Ltd., priority 2004, dated 2010).

The nature of data set [1]: Water-solubility test at 25° C. of the isolated salts (HPLC). As to conditions: shaken 3 hours (5 days for meglumine salt), filtered, concentration of Compound A by HPLC. The data set is classed as physicochemical. On the procedure:
Preparation of the Test Solution
After shaking, the mixture was filtered through a 0.45 μm membrane filter (0.2 μm for meglumine salt). 1 mL of the filtrate was precisely pipetted and thereto was added 50% DMF so as to be totally 50 mL in precise. 2 mL of this solution was precisely pipetted and thereto was added 50% DMF so as to be totally 20 mL in precise to give a sample solution.
Preparation of the Standard Solution
Using each 10 μL of the sample solutions and the standard solutions, the liquid chromatographic analyses were carried out in the following conditions.

Data set [2] can be described thus: Solubility test at 25° C. of the salt in a preparation prepared when used without isolating the salt (HPLC). The data set is classed as physicochemical. Conditions: water, Compound A plus equimolar amine, salt not isolated, shaken 7 days, 0.2 μm filter. The procedure:
And then as to a sample to which arginine was added, the suspension was filtered through a 0.2 μm membrane filter. […] And then the mixture was filtrated through a 0.2 μm membrane filter. According to the same method as Example 8, the solubilities (%) of each salt was measured by HPLC.

On to `CC(O)CNCC(C)O.O=C(NC(Cc1cc(=O)[nH]c2ccccc12)C(=O)O)c1ccc(Cl)cc1` (centres unmarked) [Compound A·diisopropanolamine salt, 2-(4-chlorobenzoylamino)-3-(2-quinolon-4-yl)propionic acid.diisopropanolamine salt], for which the “Solubility (%)” value in data set [1] is listed as 2.9%; in data set [2] it was >7.4%.
